Patent publication US11891366B1, “4-methoxy-n′-(2-(5-phenyl-1,3,4-oxadiazol-2-ylthio)acetoxy)benzimidamide as an antimicrobial compound” (KING FAISAL UNIVERSITY, priority 2023, dated 2024)

Legend:
Type in all cases: cell-based
Escherichia coli = assay: Agar plate disc-diffusion, antibacterial activity (inhibition zone); details: nutrient agar, 37° C., 48 hours
Method: (§1) The agar plate disc-diffusion method was applied. […] The discs were then placed onto the surface of agar plates (nutrient agar for bacteria and Sabouraud's dextrose agar for fungi) seeded with the test organism. Each plate contained 15 mL of the agar medium, previously seeded with 0.2 mL of the broth culture of each organism pregrown for 18 hours. The plates were incubated at 37° C. for 48 hours, and 72 hours for fungi. The inhibition zones were measured in millimeters (mm). Discs impregnated with DMSO were used as a control, and its inhibition zone was subtracted from the tested compound actual inhibition zone.

Pseudomonas aeruginosa = assay: as above; details: nutrient agar, 37° C., 48 hours
Method: as §1

Staphylococcus aureus = assay: as above; details: nutrient agar, 37° C., 48 hours
Method: as §1

Bacillus Cereus = assay: as above; details: nutrient agar, 37° C., 48 hours
Method: The agar plate disc-diffusion method was applied. Sterilized filter papers (6 mm in diameter) were wetted with 10 μL of a solution 4-methoxy-N′-(2-(5-phenyl-1,3,4-oxadiazol-2-ylthio)acetoxy)benzimidamide (3) to be tested, containing 10 mg/mL in DMSO, and the discs were allowed to air dry. The discs were then placed onto the surface of agar plates (nutrient agar for bacteria and Sabouraud's dextrose agar for fungi) seeded with the test organism. Each plate contained 15 mL of the agar medium, previously seeded with 0.2 mL of the broth culture of each organism pregrown for 18 hours. The plates were incubated at 37° C. for 48 hours, and 72 hours for fungi. The inhibition zones were measured in millimeters (mm). Discs impregnated with DMSO were used as a control, and its inhibition zone was subtracted from the tested compound actual inhibition zone.

Aspergillus flavus = assay: Agar plate disc-diffusion, antifungal activity (inhibition zone); details: Sabouraud's dextrose agar, 37° C., 72 hours
Method: as §1

[1] = tested on: Chrysosporium keratinophilum; assay: as above; details: Sabouraud's dextrose agar, 37° C., 72 hours
Method: as §1

[2] = A = concentration of comp. = 10,000 μL
[3] = B = concentration of comp. = 30,000 μL
[4] = C = concentration of comp. = 50,000 μL

O=C(O)c1cn(C2CC2)c2cc(N3CCNCC3)c(F)cc2c1=O [Cip., ciprofloxacin]
inhibition zone (Escherichia coli; [2]): 30 mm
inhibition zone (Escherichia coli; [3]): 39 mm
inhibition zone (Escherichia coli; [4]): 60 mm
inhibition zone (Pseudomonas aeruginosa; [2]): 29 mm
inhibition zone (Pseudomonas aeruginosa; [3]): 30 mm
inhibition zone (Pseudomonas aeruginosa; [4]): 53 mm
inhibition zone (Staphylococcus aureus; [2]): 43 mm
inhibition zone (Staphylococcus aureus; [3]): 44 mm
inhibition zone (Staphylococcus aureus; [4]): 53 mm
inhibition zone (Bacillus Cereus; [2]): 29 mm
inhibition zone (Bacillus Cereus; [3]): 30 mm
inhibition zone (Bacillus Cereus; [4]): 42 mm
inhibition zone (Aspergillus flavus; [2]): 29 mm
inhibition zone (Aspergillus flavus; [3]): 30 mm
inhibition zone (Aspergillus flavus; [4]): 42 mm
inhibition zone [1, 2]: 29 mm
inhibition zone [1, 3]: 30 mm
inhibition zone [1, 4]: 53 mm

COc1ccc(/C(N)=N/OC(=O)CSc2nnc(-c3ccccc3)o2)cc1 [Compound 3, 4-methoxy-N′-(2-(5-phenyl-1,3,4-oxadiazol-2-ylthio)acetoxy)benzimidamide]
inhibition zone (Escherichia coli; [2]): 26 mm
inhibition zone (Escherichia coli; [3]): 34 mm
inhibition zone (Escherichia coli; [4]): 49 mm
inhibition zone (Pseudomonas aeruginosa; [2]): 23 mm
inhibition zone (Pseudomonas aeruginosa; [3]): 28 mm
inhibition zone (Pseudomonas aeruginosa; [4]): 41 mm
inhibition zone (Staphylococcus aureus; [2]): 22 mm
inhibition zone (Staphylococcus aureus; [3]): 30 mm
inhibition zone (Staphylococcus aureus; [4]): 45 mm
inhibition zone (Bacillus Cereus; [2]): 27 mm
inhibition zone (Bacillus Cereus; [3]): 29 mm
inhibition zone (Bacillus Cereus; [4]): 41 mm
inhibition zone (Aspergillus flavus; [2]): 21 mm
inhibition zone (Aspergillus flavus; [3]): 25 mm
inhibition zone (Aspergillus flavus; [4]): 38 mm
inhibition zone [1, 2]: 26 mm
inhibition zone [1, 3]: 28 mm
inhibition zone [1, 4]: 41 mm
